# Patent US20220143060A1, “METHOD FOR TREATING INFECTIOUS DISEASES BY TARGETING NK CELL IMMUNE CHECKPOINT” (priority 2019, published 2022)
# Assays:
# liver NK cells = experiment: in vitro NK function assay: liver NK cells of treated mice co-cultured with target cells Yac-1, flow cytometry (CD107a, granzyme B, IFN-γ); assay type: in vivo, C/O-Tg mice; conditions: two weeks of treatment with Qa-1 siRNA, vs control siRNA (FIG. 8D)
# HCV (J399EM) = experiment: HCV copy number in serum/peripheral blood and liver tissue by qPCR in HCV-infected C/O-Tg mice; assay type: in vivo; conditions: two weeks of treatment, vs control (FIG. 7B, 8C)
# Protocol: This mouse model of HCV infection was first reproduced and confirmed. HCV (J399EM, 1 mL, TCID50=2×10^7) was used for tail vein infusion in C/O-Tg mice and wild-type littermate control mice. […] The above results are consistent with the observation in patients infected with HCV (Fahey S, Dempsey E, Long A. The role of chemokines in acute and chronic hepatitis C infection. Cellular and Molecular Immunology 11, 25 (2014)).
# Since CD8+ T cells are generally thought to play an important role in viral infection and clearance, the expression profile of CD8+T immune checkpoint molecules during HCV infection was first tested. […] Based on this, it was tested whether targeting T cell immune checkpoint molecules can inhibit the chronic infection process.
# In order to further investigate the therapeutic effect of NKG2A blockade on chronic HCV infection, mice were administered with NKG2A blocking antibodies two weeks after HCV infection. Up-regulation of NKG2A expression has been observed at this stage (FIG. 3C) and administration was lasted for two weeks (FIG. 6A).
# Qa-1 = Qa-1 mRNA expression of different cell components in liver tissue after siRNA treatment; assay type: in vivo, C/O-Tg mice; conditions: tail vein injection, two weeks of treatment, vs control siRNA (FIG. 8B)
# Source text: On the other hand, it was investigated whether suppression of the expression of immune checkpoint molecules can promote the elimination of HCV.
substance,measurement,setting,value
"cholesterol-conjugated siRNA against Qa-1: cholesterol-conjugated siRNA against Qa-1, sequence GAAGAGGAGGAGACACAUA, synthesized by GenePharma (cholesterol-conjugated, position not given here)",depletion process of NK cells (CD107a and IFN-γ),liver NK cells,reversed
same,HCV replication (copy numbers of virus in serum and liver tissues),HCV (J399EM),inhibited HCV replication
same,Qa-1 expression (mRNA) in liver cell components,Qa-1,selectively down-regulated Qa-1 in hepatocytes
